Laboratory results: paper PMC9457600, “Synthesis, Leishmanicidal, Trypanocidal, Antiproliferative Assay and Apoptotic Induction of (2-Phenoxypyridin-3-yl)naphthalene-1(2H)-one Derivatives” (Molecules, 2022)

Legend:
A549 = assay: MTS antiproliferative assay A549; type: cell-based, human; conditions: 72 h of incubation
Text: (§1) The cell lines used were acquired from the American Type Culture Collection (ATCC), CCRF-CEM (T lymphoblastic leukemia), K562 ([…]), U2OS (osteosarcoma), HCT116 (colon carcinoma), A549 (lung adenocarcinoma) and HCT116p53−/− (HCT116 cell line mutated in p53) Horizon Discovery Ltd., (Waterbeach, Cambridge, United Kingdom).
(§2) In our laboratory, IMTM, we generated the daunorubicin-resistant subline of CCRF-CEM cells (CEM-DNR bulk) and paclitaxel-resistant subline K562-TAX, as described previously. […] Both ABC transporters are involved in drug resistance. As a control, human fibroblasts MRC-5 and BJ cell lines were used. […] Adherent cells were passaged using PBS containing 0.25% trypsin plus 0.01% EDTA (ethylenediamine tetraacetic acid) every 2–3 days.
(§3) The antiproliferative activity of compounds was determined using a standard 3-(4,5-dimethylthiazol-2yl)-5-(3-carboxymethoxyphenyl)-2-(4-sulfophenyl)-2H-tetrazolium (MTS) reduction assay on a robotic high throughput screening platform (HighResBio, Boston, MA, USA) following treatment of cells for 3–7 days. The IC50 values were calculated from the appropriate dose–response curves with Dotmatics software (San Diego, CA, USA).

MRC-5 = assay: MTS assay on non-malignant MRC-5; type: cell-based; conditions: MRC5; noncancerous human cell line
Description: as §2, §3

[1] = tested on: promastigotes of Leishmania (V.) braziliensis strain MHOM/CO/87/UA301; assay: MTT viability of L. braziliensis promastigotes; type: cell-based; conditions: 72 h, promastigotes;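 note: promastigote proliferation in 96-well plates, MTT reduction read at 570 nm, EC50 derived from growth curves, cytotoxicity CC50 likewise by MTT in BMDM and VERO cells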
K562 = assay: MTS antiproliferative assay K562; type: cell-based, human; conditions: for IC50: 72 h of incubation; for times higher cytotoxicity against K562 than K562-TAX: ratio of IC50 values
Text: as §1, §2, §3

HCT-116 = assay: MTS antiproliferative assay HCT116; type: cell-based; conditions: Homo sapiens, 72 h of incubation
Text: as §1, §2, §3

U2OS = assay: MTS antiproliferative assay U2OS; type: cell-based; conditions: Homo sapiens, 72 h of incubation
Text: as §1, §2, §3

CCRF-CEM = assay: MTS antiproliferative assay CCRF-CEM; type: cell-based; conditions: Homo sapiens, 72 h of incubation
Text: as §1, §2, §3

K562-TAX = assay: MTS antiproliferative assay K562-TAX; type: cell-based, human; conditions: 72 h of incubation, paclitaxel-resistant
Text: as §1, §2, §3

HCT116p53−/− = assay: MTS antiproliferative assay HCT116p53-/-; type: cell-based; conditions: Homo sapiens; 72 h of incubation
Text: as §1, §2, §3

BJ = assay: MTS assay on non-malignant BJ; type: cell-based; conditions: noncancerous human cell line
Description: as §2, §3

CEM-DNR = assay: MTS antiproliferative assay CEM-DNR; type: cell-based; conditions: Homo sapiens, 72 h of incubation, daunorubicin-resistant
Text: as §1, §2, §3

[2] = tested on: epimastigotes of Trypanosoma cruzi strain MHOM/VE/92/YBM; assay: MTT viability of T. cruzi epimastigotes; type: cell-based; conditions: Trypanosoma cruzi, 72 h, epimastigotes
A549 cell line = assay: Annexin V-FITC/PI flow cytometry apoptosis assay A549; type: cell-based, human; conditions: 24 h
Description: (§4) Cell death was assessed after 24 h incubation with compounds 18 and 22. Apoptosis was analyzed by flow cytometry using annexin V-FITC and propidium iodide (PI). Early apoptosis was defined by annexin V-FITC expression and, necrosis by PI expression, late apoptosis by coexpression of annexin V/PI. Doxorubicin and quercetin were used as positive controls. The results of a typical flow cytometry analysis of both compounds are illustrated in Figure 2 and Figure 3. An increase in early apoptosis and late apoptosis was observed; necrosis was less predominant. The results are summarized in Tables S1 and S2 (Supplementary Materials). The expression of annexin V was different depending on the compound used. K562, A549 cell lines were treated as described by the manufacturer (Santa Cruz Biotechnology), washed, and resuspended in annexin V binding buffer (0.01 M HEPES, 0.14 M NaCl, and 2.5 mM CaCl2) with the subsequent incubation of annexinV-FITC and then PI. An Epics XL cytometer (Beckman Coulter, Indianapolis, IN, USA) was used for the analysis. Untreated cells were the negative controls, and doxorubicin (Dox) (1 μM), and quercetin (QC) (50 μM) were the positive controls. Early apoptosis refers to annexin V expression, late apoptosis, the coexpression of annexin V and PI, and necrosis the sole expression of PI. […] The experiments were performed as described before. To avoid the unwanted effects of DMSO, the concentrations of the compounds were never higher than 100 μM.

K562 cell line = assay: Annexin V-FITC/PI flow cytometry apoptosis assay K562; type: cell-based, human; conditions: 24 h
Description: as §4

Compound | IC50 (A549; Homo sapiens, A549, 72 h) [µM] | IC50 (MRC-5) [µM] | EC50 [1] [µM] | IC50 (K562; Homo sapiens, K562, 72 h) [µM] | IC50 (HCT-116) [µM] | IC50 (U2OS) [µM] | melting point [°C] | IC50 (CCRF-CEM) [µM] | IC50 (K562-TAX; Homo sapiens, K562-Tax, 72 h) [µM] | IC50 (HCT116p53−/−) [µM] | IC50 (BJ) [µM] | IC50 (CEM-DNR) [µM] | EC50 [2] [µM] | other results
COc1cccc2c1CC/C(=C\c1cccnc1Oc1ccc(F)cc1)C2=O [Compound 13, (E)-2-{[2-(4-Fluorophenoxy)pyridin-3-yl]methylene}-3,4-dihydro-5-methoxynaphthalen-1(2H)-one] | 28.4 ± 2.14 | > 50 | > 100 | 23.4 ± 2.31 | 27.2 ± 2.44 | 21 ± 2.21 | 154 to 156 | 6.07 ± 0.59 | 39.3 ± 5.4 | 23.5 ± 1.5 | > 50 | 37.3 ± 3.13 | > 100 | –
COc1cccc2c1C(=O)c1c(O)c3c(c(O)c1C2=O)C[C@@](O)(C(=O)CO)C[C@@H]3O[C@H]1C[C@H](N)[C@H](O)[C@H](C)O1 [Dox, doxorubicin, reference compound] | – | – | – | – | – | – | – | – | – | – | – | – | – | AV+/IP+ (late apoptosis) (A549 cell line; A549, 1 µM): 33.50%; AV+/IP- (early apoptosis) (A549 cell line; A549, 1 µM): 8.33%; AV-/IP+ (necrosis) (A549 cell line; A549, 1 µM): 29.30%; AV+/IP+ (late apoptosis) (K562 cell line; K562, 1 µM): 29.80%; AV+/IP- (early apoptosis) (K562 cell line; K562, 1 µM): 29.40%; AV-/IP+ (necrosis) (K562 cell line; K562, 1 µM): 19.20%
COc1cccc2c1CC/C(=C\c1cccnc1Oc1ccc(Br)cc1)C2=O [Compound 17, (E)-2-{[2-(4-Bromophenoxy)pyridin-3-yl]methylene}-3,4-dihydro-5-methoxynaphthalen-1(2H)-one] | > 50 | > 50 | > 100 | 32 ± 3.72 | > 50 | > 50 | 158 to 160 | 12.9 ± 2.07 | 31.4 ± 6.59 | > 50 | > 50 | 31.7 ± 5.86 | > 100 | –
COc1ccc2c(c1)CC/C(=C\c1cccnc1Oc1ccc(F)cc1)C2=O [Compound 14, (E)-2-{[2-(4-Fluorophenoxy)pyridin-3-yl]methylene}-3,4-dihydro-6-methoxynaphthalen-1(2H)-one] | 43.6 ± 4.12 | > 50 | > 100 | 5.74 ± 3.2 | > 50 | > 50 | 152 to 154 | 20.1 ± 2.43 | > 39.2 | > 50 | > 50 | 41.3 ± 5.67 | > 100 | times higher cytotoxicity against K562 than K562-TAX (K562): 6.8 times; IC50 (K562-TAX): 39.2 ± 9.37 µM
COc1ccc2c(c1)CC/C(=C\c1cccnc1Oc1ccc(Br)cc1)C2=O [Compound 18, (E)-2-{[2-(4-Bromophenoxy)pyridin-3-yl]methylene}-3,4-dihydro-6-methoxynaphthalen-1(2H)-one] | 9.64 to 9.74 | > 50 | > 100 | 3.91 to 4.33 | > 50 | 7.27 ± 0.68 | – | 5.97 ± 0.67 | 17.6 ± 7.09 | > 50 | > 50 | 25.7 ± 5.71 | > 100 | IC50 (A549): 9.64 ± 1.71 µM; IC50 (K562): 4.33 ± 0.19 µM; times higher cytotoxicity against K562 than K562-TAX (K562): 4.1 times; AV+/IP+ (late apoptosis) (A549 cell line; A549, 10 µM): 3.28%; AV+/IP- (early apoptosis) (A549 cell line; A549, 10 µM): 11.10%; AV-/IP+ (necrosis) (A549 cell line; A549, 10 µM): 3.06%; AV+/IP+ (late apoptosis) (A549 cell line; A549, 25 µM): 21.10%; AV+/IP- (early apoptosis) (A549 cell line; A549, 25 µM): 40.10%; AV-/IP+ (necrosis) (A549 cell line; A549, 25 µM): 3.12%; AV+/IP+ (late apoptosis) (K562 cell line; K562, 5 µM): 2.84%; AV+/IP- (early apoptosis) (K562 cell line; K562, 5 µM): 22.70%; AV-/IP+ (necrosis) (K562 cell line; K562, 5 µM): 0.89%; AV+/IP+ (late apoptosis) (K562 cell line; K562, 10 µM): 89.50%; AV+/IP- (early apoptosis) (K562 cell line; K562, 10 µM): 8.69%; AV-/IP+ (necrosis) (K562 cell line; K562, 10 µM): 1.12%; annexin V-FITC expression (K562 cell line; K562, 10 µM): higher than 50%
O=c1c(O)c(-c2ccc(O)c(O)c2)oc2cc(O)cc(O)c12 [QC, quercetin, reference compound] | – | – | – | – | – | – | – | – | – | – | – | – | – | AV+/IP+ (late apoptosis) (A549 cell line; A549, 50 µM): 21.70%; AV+/IP- (early apoptosis) (A549 cell line; A549, 50 µM): 26.10%; AV-/IP+ (necrosis) (A549 cell line; A549, 50 µM): 5.60%; AV+/IP+ (late apoptosis) (K562 cell line; K562, 50 µM): 6.25%; AV+/IP- (early apoptosis) (K562 cell line; K562, 50 µM): 34.30%; AV-/IP+ (necrosis) (K562 cell line; K562, 50 µM): 1.57%
O=C1/C(=C/c2cccnc2Oc2ccc(Br)cc2)CCc2ccccc21 [Compound 16, (E)-2-{[2-(4-Bromophenoxy)pyridin-3-yl]methylene}-3,4-dihydronaphthalen-1(2H)-one] | 39.7 ± 1.89 | > 50 | > 100 | 23.9 ± 2.28 | 29.9 ± 4.59 | 38 ± 4.47 | 138 to 140 | 8.7 ± 2.19 | 25.6 ± 5.37 | 31.5 ± 62.7 | > 50 | 34.3 ± 3.61 | > 100 | –
O=C1/C(=C/c2cccnc2Oc2ccc(F)cc2)CCc2ccccc21 [Compound 12, (E)-2-{[2-(4-Fluorophenoxy)pyridin-3-yl]methylene}-3,4-dihydronaphthalen-1(2H)-one] | 28.1 ± 4.86 | > 50 | > 100 | 22.4 ± 2.3 | 26.4 ± 1.58 | 23.2 ± 1.9 | – | 6.7 ± 0.98 | 32.9 ± 3.19 | 26.9 ± 3.49 | > 50 | 35.6 ± 4.42 | > 100 | –
COc1ccc2c(c1)C(=O)/C(=C/c1cccnc1Oc1ccc(F)cc1)CC2 [Compound 15, (E)-2-{[2-(4-Fluorophenoxy)pyridin-3-yl]methylene}-3,4-dihydro-7-methoxynaphthalen-1(2H)-one] | 29.1 ± 5 | > 50 | > 100 | 27.7 ± 2.49 | 30.5 ± 2.34 | 26.3 ± 4.61 | 150 to 152 | 9.13 ± 1.38 | 19.7 ± 3.78 | 23.9 ± 2.5 | > 50 | 23.1 ± 4.38 | > 100 | –
